# Data: PMC4290489, “Identification of multiple salicylic acid-binding proteins using two high throughput screens” (Frontiers in Plant Science, 2015)
# Experiments:
# Assay type in all cases: binding
# TRX-m1 [1] = target: T1, TRX-m1 (Arabidopsis thaliana, UniProt O48737); assay: UV photo-crosslinking, anti-SA immunoblot; details: 50 uM 4AzSA, PBS, on ice, 254 nm UV; covalent; competed by SA
# T1 construct: gene At1g03680; N-terminal His6 (pET28a), from E. coli
# T1 sequence (O48737 49-179): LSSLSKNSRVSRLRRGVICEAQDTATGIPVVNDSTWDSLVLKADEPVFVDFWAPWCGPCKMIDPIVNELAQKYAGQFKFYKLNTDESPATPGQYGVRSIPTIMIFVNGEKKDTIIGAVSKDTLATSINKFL
# SHM4 = target: T2, SHM4 (Arabidopsis thaliana, UniProt O23254); assay: UV photo-crosslinking, anti-SA immunoblot; details: 50 uM 4AzSA, PBS, on ice, 254 nm UV; covalent; competed by SA
# T2 construct: N-terminal His6 (pET28a), from E. coli
# T2 sequence (O23254 1-471): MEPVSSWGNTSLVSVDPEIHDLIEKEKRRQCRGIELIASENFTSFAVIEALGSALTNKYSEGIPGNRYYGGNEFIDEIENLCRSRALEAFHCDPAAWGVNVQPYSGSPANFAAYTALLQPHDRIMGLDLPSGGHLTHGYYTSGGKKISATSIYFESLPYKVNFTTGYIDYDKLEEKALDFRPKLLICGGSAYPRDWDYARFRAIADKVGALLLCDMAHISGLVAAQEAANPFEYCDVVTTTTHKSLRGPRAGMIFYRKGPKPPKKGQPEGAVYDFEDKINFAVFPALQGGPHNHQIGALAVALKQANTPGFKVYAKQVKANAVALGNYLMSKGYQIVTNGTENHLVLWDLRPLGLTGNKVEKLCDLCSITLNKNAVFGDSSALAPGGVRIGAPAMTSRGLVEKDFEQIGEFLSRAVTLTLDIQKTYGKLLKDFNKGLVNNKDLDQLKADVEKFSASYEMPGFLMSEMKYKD
# TPPII = target: T3, TPPII (Arabidopsis thaliana, UniProt F4JVN6); assay: SPR competition on 3AESA chip; competition of 4AzSA photo-crosslinking; details: 1-5 mM SA, HBS-EP pH 7.4 (SPR); competes with 3AESA and 4AzSA
# T3 construct: gene TPP2; N-terminal His6 (pET28a), from E. coli
# T3 sequence (F4JVN6 1-1380): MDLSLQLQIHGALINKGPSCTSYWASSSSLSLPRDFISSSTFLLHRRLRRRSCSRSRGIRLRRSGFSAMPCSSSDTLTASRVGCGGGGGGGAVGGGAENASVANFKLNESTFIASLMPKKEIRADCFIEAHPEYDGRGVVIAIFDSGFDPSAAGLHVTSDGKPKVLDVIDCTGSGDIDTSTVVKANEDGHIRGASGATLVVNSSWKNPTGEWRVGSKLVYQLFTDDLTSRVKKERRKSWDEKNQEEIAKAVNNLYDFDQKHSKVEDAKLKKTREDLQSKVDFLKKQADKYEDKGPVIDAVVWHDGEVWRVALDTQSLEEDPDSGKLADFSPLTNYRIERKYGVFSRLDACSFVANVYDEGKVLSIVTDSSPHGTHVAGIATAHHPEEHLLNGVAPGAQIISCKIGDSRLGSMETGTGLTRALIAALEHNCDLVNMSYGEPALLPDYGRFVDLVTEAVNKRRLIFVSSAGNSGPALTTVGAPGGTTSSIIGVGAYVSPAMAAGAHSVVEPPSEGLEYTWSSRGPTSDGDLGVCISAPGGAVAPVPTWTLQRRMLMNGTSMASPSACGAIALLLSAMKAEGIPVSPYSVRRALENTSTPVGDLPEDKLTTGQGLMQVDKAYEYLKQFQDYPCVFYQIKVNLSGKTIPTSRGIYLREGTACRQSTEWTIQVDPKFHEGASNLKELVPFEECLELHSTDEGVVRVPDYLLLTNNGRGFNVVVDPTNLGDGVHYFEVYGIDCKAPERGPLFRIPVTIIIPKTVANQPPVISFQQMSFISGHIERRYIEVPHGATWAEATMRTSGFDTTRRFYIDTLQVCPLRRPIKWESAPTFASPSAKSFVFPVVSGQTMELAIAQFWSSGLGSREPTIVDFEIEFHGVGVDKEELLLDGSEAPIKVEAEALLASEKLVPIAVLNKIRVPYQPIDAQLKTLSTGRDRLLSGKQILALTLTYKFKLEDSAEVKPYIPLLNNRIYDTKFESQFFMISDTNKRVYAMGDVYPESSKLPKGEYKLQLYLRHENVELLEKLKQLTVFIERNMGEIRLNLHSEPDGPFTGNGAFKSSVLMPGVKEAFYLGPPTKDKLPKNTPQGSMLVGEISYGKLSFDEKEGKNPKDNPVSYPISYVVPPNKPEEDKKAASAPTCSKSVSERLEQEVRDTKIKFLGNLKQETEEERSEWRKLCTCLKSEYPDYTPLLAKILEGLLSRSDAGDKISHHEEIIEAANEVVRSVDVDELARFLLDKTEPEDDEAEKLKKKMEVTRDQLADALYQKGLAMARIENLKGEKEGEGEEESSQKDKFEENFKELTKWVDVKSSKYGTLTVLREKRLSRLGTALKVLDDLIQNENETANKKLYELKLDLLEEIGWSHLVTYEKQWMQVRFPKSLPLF
# TRX-m1 [2] = target: T1, TRX-m1; assay: as above; details: 1-5 mM SA, HBS-EP pH 7.4 (SPR); competes with 3AESA and 4AzSA
SMILES,"UV photo-crosslinking, anti-SA immunoblot (TRX-m1 [1])","UV photo-crosslinking, anti-SA immunoblot (SHM4)",SPR competition on 3AESA chip; competition of 4AzSA photo-crosslinking (TPPII),SPR competition on 3AESA chip; competition of 4AzSA photo-crosslinking (TRX-m1 [2])
[N-]=[N+]=Nc1ccc(C(=O)O)c(O)c1 [4AzSA],These five proteins also bound and crosslinked to 4AzSA,These five proteins also bound and crosslinked to 4AzSA,–,–
O=C(O)c1ccccc1O [SA],–,–,"SA competes with 3AESA and 4AzSA for binding by TRX-m1, TPPII, SHM4, and LOX2","SA competes with 3AESA and 4AzSA for binding by TRX-m1, TPPII, SHM4, and LOX2"
